This is an account of results in patent US20250213574A1, “THERAPEUTIC COMBINATIONS COMPRISING UBIQUITIN- SPECIFIC-PROCESSING PROTEASE 1 (USP1) INHIBITORS AND CHEMOTHERAPY AGENTS” (KSQ Therapeutics, Inc., priority 2022, published 2025).

Several values for one entry are separate records, joined by “and”; a condition that tells them apart may be missing. Identical values can stand only once. Like-named read-outs stand apart in the source and are kept apart here.

What all share (type): cell-based
One assay concerns ASPC1. The experiment in a line: Colony formation (CFU) assay, ASPC1. The note with it: ASPC1, pancreas. The method, then:
(§1) In vitro experiments were conducted using the colony formation unit (CFU) assay on various cell lines. The CFU assay involved first establishing what cell plating density enabled the development of clearly interspersed colonies on a six-well plate when left to grow for around 14 days. […] At or around day 14 when clearly interspersed colonies were visible in the DMSO-treated wells, the cells were fixed and stained using 0.1% crystal violet in 10% ethanol for 20 minutes at room temperature. The plates were imaged then the amount of crystal violet stain in each well was quantified by extracting the crystal violet into 10% acetic acid and the absorbance measured at 565 nm.
(§2) For certain cell lines, multiple IC50 values were taken, and those are separated by commas. Synergy scores are in parentheticals.

In another assay the test system is CAPAN2. The experiment in a line: Colony formation (CFU) assay, CAPAN2. The note with it: CAPAN2, pancreas, CFU ~14 days, wells with DMSO or 300 nM Compound 1, read-out: Chemotherapy nM IC50s. As for the experimental part:
as §1, §2

The test system of the next assay is COV362. The experiment in a line: Colony formation (CFU) assay, COV362. The note with it: COV362, 336 h, read-out: Chemotherapy nM IC50s. The method, then: as §1, §2
The subject of the next assay is GSU. The experiment in a line: Colony formation (CFU) assay, GSU. To be noted: stomach, chemotherapy agent in combination with 300 nM Compound 1. The method, then: as §1, §2
The test system of another assay is HCT15. The experiment in a line: Colony formation (CFU) assay, HCT15. The note with it: Homo sapiens, HCT-15, 336 h; HCT15, colon; CFU ~14 days; wells with DMSO or 300 nM Compound 1; read-out: Chemotherapy nM IC50s. As for the experimental part:
as §1, §2

The test system of a further assay is HPAC. The experiment in a line: Colony formation (CFU) assay, HPAC. The note with it: Homo sapiens, 336 h, pancreas, CFU ~14 days, wells with DMSO or 300 nM Compound 1, read-out: Chemotherapy nM IC50s. As for the experimental part:
as §1, §2

For a further assay, the system named is OVSAHO. The experiment in a line: Colony formation (CFU) assay, OVSAHO. To be noted: Homo sapiens, 336 h, ovary, CFU ~14 days, wells with DMSO or 300 nM Compound 1, read-out: Chemotherapy nM IC50s. The method, then: as §1, §2
In another assay the test system is SW948. The experiment in a line: Colony formation (CFU) assay, SW948. The note with it: SW948, colon; for IC50: CFU ~14 days, wells with DMSO or 300 nM Compound 1, read-out: Chemotherapy nM IC50s. As for the experimental part: as §1, §2
The subject of another assay is UWB1289. The experiment in a line: Colony formation (CFU) assay, UWB1289. The note with it: 336 h; UWB1289, ovary; CFU ~14 days; wells with DMSO or 300 nM Compound 1; read-out: Chemotherapy nM IC50s. The method, then: as §1, §2
The test system of the next assay is various cell lines. The experiment in a line: Colony formation (CFU) assay, summary over cell lines of Table 1. To be noted: combination of USP1 inhibitor (Compound 1, 300 nM) and the chemotherapy agent. The method, then:
as §1
In certain cell lines, combinations of the disclosure are synergistic. In some aspects, these combinations are determined to have a Bliss score is about 6, about 7, about 8, about 9, about 10, about 11, about 12, about 13, about 14, about 15, about 16, about 17, about 18, about 19, about 20 or about 25.

In another assay the test system is 647V. The experiment in a line: Colony formation (CFU) assay, 647V. The note with it: bladder, CFU ~14 days, wells with DMSO or 300 nM Compound 1, read-out: Chemotherapy nM IC50s. The method, then: as §1, §2
The subject of the next assay is ACCMESO1. The experiment in a line: Colony formation (CFU) assay, ACCMESO1. To be noted: ACCMESO1, pleura, CFU ~14 days, wells with DMSO or 300 nM Compound 1, read-out: Chemotherapy nM IC50s. As for the experimental part:
as §1, §2

A further assay deals with HCC1806. The experiment in a line: Colony formation (CFU) assay, HCC1806. The note with it: HCC1806, breast; CFU ~14 days; wells with DMSO or 300 nM Compound 1; read-out: Chemotherapy nM IC50s (converted). As for the experimental part: as §1, §2
In the next assay the test system is HCT116. The experiment in a line: Colony formation (CFU) assay, HCT116. The note with it: HCT116, colon; CFU ~14 days; wells with DMSO or 300 nM Compound 1; read-out: Chemotherapy nM IC50s. The method, then:
as §1, §2

A further assay has as its system KALS1. The experiment in a line: Colony formation (CFU) assay, KALS1. To be noted: KALS1, nervous system; CFU ~14 days; wells with DMSO or 300 nM Compound 1; read-out: Chemotherapy nM IC50s. As for the experimental part: as §1, §2
Another assay relates to KU1919. The experiment in a line: Colony formation (CFU) assay, KU1919. The note with it: KU1919, bladder; CFU ~14 days; wells with DMSO or 300 nM Compound 1; read-out: Chemotherapy nM IC50s. The method, then: as §1, §2
Another assay relates to KYSE270. The experiment in a line: Colony formation (CFU) assay, KYSE270. To be noted: KYSE270, esophagus; CFU ~14 days; wells with DMSO or 300 nM Compound 1; read-out: Chemotherapy nM IC50s. As for the experimental part: as §1, §2
For another assay, the system named is KYSE70. The experiment in a line: Colony formation (CFU) assay, KYSE70. To be noted: KYSE70, esophagus; CFU ~14 days; wells with DMSO or 300 nM Compound 1; read-out: Chemotherapy nM IC50s. The method, then:
as §1, §2

Another assay concerns MDAMB231. The experiment in a line: Colony formation (CFU) assay, MDAMB231. The note with it: MDAMB231, breast; CFU ~14 days; wells with DMSO or 300 nM Compound 1; read-out: Chemotherapy nM IC50s. The method, then:
as §1, §2

Another assay relates to NCIH596. The experiment in a line: Colony formation (CFU) assay, NCIH596. The note with it: NCIH596, lung; CFU ~14 days; wells with DMSO or 300 nM Compound 1; read-out: Chemotherapy nM IC50s. The method, then:
as §1, §2

The subject of another assay is SUM149PT. The experiment in a line: Colony formation (CFU) assay, SUM149PT. To be noted: breast, CFU ~14 days, wells with DMSO or 300 nM Compound 1, read-out: Chemotherapy nM IC50s. The method, then:
as §1, §2

Another assay deals with UMUC3. The experiment in a line: Colony formation (CFU) assay, UMUC3. The note with it: UMUC3, bladder; CFU ~14 days; wells with DMSO or 300 nM Compound 1; read-out: Chemotherapy nM IC50s. As for the experimental part:
as §1, §2

The next assay relates to A549. The experiment in a line: Colony formation (CFU) assay, A549. To be noted: Homo sapiens, 336 h; A549, lung; CFU ~14 days; wells with DMSO or 300 nM Compound 1; read-out: Chemotherapy nM IC50s. As for the experimental part: as §1, §2
The test system of the next assay is MERO14. The experiment in a line: Colony formation (CFU) assay, MERO14. To be noted: 336 h, CFU ~14 days, wells with DMSO or 300 nM Compound 1, read-out: Chemotherapy nM IC50s. As for the experimental part:
as §1, §2

A further assay has as its system MERO83. The experiment in a line: Colony formation (CFU) assay, MERO83. To be noted: 336 h, CFU ~14 days, wells with DMSO or 300 nM Compound 1, read-out: Chemotherapy nM IC50s. The method, then:
as §1, §2

The test system of a further assay is MSTO211H. The experiment in a line: Colony formation (CFU) assay, MSTO211H. The note with it: pleura, CFU ~14 days, wells with DMSO or 300 nM Compound 1, read-out: Chemotherapy nM IC50s. As for the experimental part: as §1, §2
The next assay deals with NCIH1915. The experiment in a line: Colony formation (CFU) assay, NCIH1915. To be noted: NCI-H1915, 336 h; NCIH1915, lung; CFU ~14 days; wells with DMSO or 300 nM Compound 1; read-out: Chemotherapy nM IC50s. As for the experimental part:
as §1, §2

Another assay concerns NCIH2452. The experiment in a line: Colony formation (CFU) assay, NCIH2452. The note with it: Homo sapiens, NCI-H2452, 336 h; NCIH2452, pleura; CFU ~14 days; wells with DMSO or 300 nM Compound 1; read-out: Chemotherapy nM IC50s. The method, then:
as §1, §2

Setting [1] is: chemotherapy agent in combination with 300 nM Compound 1.

Take `CC[C@@]1(O)C(=O)OCc2c1cc1n(c2=O)Cc2cc3ccccc3nc2-1` [Campto., camptothecin]: the synergy score in the assay on ASPC1 (setting [1]) is −5; in the assay with GSU, 13; in the assay on SW948 (setting [1]) it was “(−3)”. Also, the IC50 with ASPC1 (Homo sapiens, 336 h, CFU ~14 days, wells with DMSO or 300 nM Compound 1, read-out: Chemotherapy nM IC50s) worked out at 3 nM; in the assay with CAPAN2, 11 nM; with CAPAN2 (Homo sapiens, Capan-2, 336 h) it was 8 nM; in the assay with COV362 it was 274 nM; in the assay with HCT15, 5 nM; in the assay on HPAC it was 5 nM. In addition, the IC50 with OVSAHO was 177 nM; with SW948 (Homo sapiens, SW948, 336 h), 10 nM; in the assay with SW948 it was 6 nM; in the assay on UWB1289, 18 nM. Further, the “synergy of combination with USP1 inhibitor” value in the assay with various cell lines is reported as “synergy was detected”.
Regarding `CO[C@@]12[C@H](COC(N)=O)C3=C(C(=O)C(C)=C(N)C3=O)N1C[C@@H]1N[C@@H]12` [Mito. C, mitomycin C], the IC50 is 15 nM with 647V; 10 nM and 13 nM in the assay with ACCMESO1; 1 nM and 2 nM and < 1 nM with HCC1806; 19 nM with HCT116; 632 nM in the assay on KALS1; 16 nM in the assay on KU1919. The IC50 in the assay on KYSE270 was 15 nM and 11 nM; with KYSE70, 14 nM and 12 nM; in the assay on MDAMB231, 14 nM; in the assay with NCIH596 it was 10 nM; in the assay on SUM149PT it was 5 nM; in the assay on UMUC3, 18 nM and 12 nM.
On to `Nc1nc2[nH]cc(CCc3ccc(C(=O)N[C@@H](CCC(=O)O)C(=O)O)cc3)c2c(=O)[nH]1` [Pemetrex, pemetrexed], for which the IC50 in the assay with A549 is 6870 nM; in the assay on ACCMESO1 (ACC-MESO-1, 336 h) it was 172 nM; with MERO14, above 3000 nM; with MERO83, above 3000 nM; in the assay with MSTO211H (Homo sapiens, MSTO-211H, 336 h), 41 nM; in the assay on MSTO211H, 50 nM. Further, the IC50 in the assay on NCIH1915 was found to be 185 nM; in the assay with NCIH2452, 48 nM.
